Laboratory results published in US8344028B2, “Gamma-amino-butyric acid derivatives as GABAB receptor ligands” (XenoPort, Inc., priority 2009, dated 2013).

How the values were obtained:
[1] = Bioavailability following oral administration to rats; settings: rat, in vivo
Description: Rats were obtained commercially and were pre-cannulated in the jugular vein. Animals were conscious at the time of the experiment. All animals were fasted overnight and until 4 hours post-dosing of a compound.
Rat blood samples (0.3 mL/sample) were collected from all animals prior to dosing and at different time-points up to 24 h post-dose into tubes containing EDTA. Two aliquots (100 μL each) were quenched with 300 μL methanol and stored at −20° C. prior to analysis.
To prepare analysis standards, 90 μL of rat blood was quenched with 300 μL methanol followed by 10 μL of spiking standard and/or 20 μL of internal standard. The sample tubes were vortexed for at least 2 min and then centrifuged at 3400 rpm for 20 min. The supernatant was then transferred to an injection vial or plate for analysis by LC-MS-MS.
To prepare samples for analysis, 20 μL of internal standard was added to each quenched sample tube. The sample tubes were vortexed for at least 2 min and then centrifuged at 3400 rpm for 20 min. The supernatant was then transferred to an injection vial or plate for analysis by LC-MS-MS.
LC/MS/MS analysis was performed using an API 2000 or API 4000 mass spectrometer equipped with a Shimadzu and or Agilent HPLC system are used for determination concentration of compounds in rat blood. A Varian Polaris C18, 3μ 50×4.6 mm column was used. 0.1% Formic acid in water and acetonitrile were applied as the mobile phase. Runs were 4.0 min. […] L-4-Chlorophenylalanine was used as an internal standard at m/z 200.00/154.00.
Non-compartmental analysis was performed using WinNonlin software (v.3.1 Professional Version, Pharsight Corporation, Mountain View, Calif.) on individual animal profiles. […]
The oral bioavailability (F %) of a compound was determined by comparing the area under the compound concentration vs time curve (AUC) following oral administration of a prodrug of a GABAB ligand with the AUC of the compound concentration vs time curve following intravenous administration of the GABAB ligand on a dose normalized basis.

[2] = system: GABAB(1)+/- and GABAB(1)+/+ mice; settings: 9.6 mg/kg, cited from earlier work
[3] = system: S. murinus (house musk shrew); settings: subcutaneously 30 minutes prior to challenge at 1, 3, and 10 mg/kg; reduced from about 23; cited from earlier work
GABAB receptor [4] = target: GABAB receptor (Homo sapiens, UniProt Q9UBS5); test: GABAB receptor agonist or partial agonist activity by binding, electrophysiology, cAMP and/or Ca2+ assay methods (Examples 83-86); assay type: cell-based
Summary of the method: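 Binding: rat cortex membranes in 50 mM Tris pH 7.4 with 100 μM isoguvacine were preincubated 10 min at RT with compound, then radiolabeled CGP54626 (1-10 nM) was added; filtered and scintillation-counted. cAMP: GABAB R1a2 HEK cells, 1 h RT with 100 μM forskolin, chemiluminescence.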

[5] = target: T1, recombinant human GABABR1a2 (Homo sapiens, UniProt Q9UBS5); test: cAMP assay for determining GABAB receptor agonist activity; assay type: cell-based; settings: cells expressing recombinant human GABABR1a2; read-out: cAMP EC50
T1 construct: expressed in transfected cells; host or cells: HEK cells
Description: The following procedure was used to determine the level of intracellular cAMP. Recombinant HEK cells expressing the GABAB R1a2 receptor were used in the experiments. cAMP levels were measured using a cAMP XS^+ HitHunter™ Chemiluminescence Assay Kit (90-0075-02, GE Healthcare Biosciences Corp.). Cells were seeded overnight at 5,000 cells per well, in black, clear bottom 96-well plates. The following morning, cells were washed twice with 100 μL PBS per well. Forskolin was weighed out and dissolved in DMSO to a final concentration 100 mM. One-hundred (100) μM forskolin solutions were prepared in PBS with and without test compound at 1-times final concentration. Thirty (30) μL of the test solutions were added to the wells and incubated for 1 h at room temperature. The cAMP concentration was determined according to the protocol described in the cAMP assay kit, maintaining the plate at room temperature and in the dark. Two hours after the final kit reagent was added, the plate bottom was covered with black tape, and the plate read using a 1450 MicroBeta Trilux microplate scintillation and luminescence counter (PerkinElmer, Waltham, Mass.). Each well was read for 6 seconds. The untransformed data was then analyzed.

GABAB receptor [6] = target: T2, GABAB receptor (Rattus norvegicus, UniProt Q9Z0U4); test: [3H]CGP54626 rat brain GABAB receptor binding assay; settings: [3H]CGP54626 rat brain binding assay
T2 construct: from tissue; host or cells: rat cerebral cortex membranes
Description: An assay using rat cerebral cortex membranes was used to determine the affinity of GABAB receptor ligands for the GABAB receptor.
An assay buffer of 50 mM Tris pH 7.4 was prepared with 100 μM of isoguvacine, to block GABAA interactions. The assay buffer with isoguvacine was used for dilution of membranes, compounds, and radiolabel.
Rat cerebral cortex membranes were diluted in assay buffer at 1 mg/mL and aliquoted into a 96-well plate at 900 μL/well. Buffer or test compound were added at 20-times final concentration in the buffer at 50 μL/well. Membranes and test compounds or buffer were incubated for 10 min. at room temperature. Radiolableled [S—(R*,R*)]-[3-[[1-(3,4-dichlorophenyl)ethyl]amino]-2-hydroxypropyl](cyclohexylmethyl) phosphinic acid (CGP54626) was then added at 50 μL/well in the buffer at 1-10 nM concentration in 50 μl. The mixture was incubated for 15 min. at room temperature. The assay mixture was filtered using Brandell filtration apparatus and GFB filters, washed twice with 3 mL of 4° C., 50 mM Tris pH 7.4, buffer without isoguvacine. The filters were then dried at room temperature and the dried filters punched out and placed in individual vials. Three (3) mL of scintillation fluid was added to each vial and the radiolabel counted on the scintillation counter. The inverse amount of radiolabel was indicative of binding of a test compound to the GABAB receptor.

[7] = target: T1, recombinant human GABABR1a2; test: Ca2+ assay for determining GABAB receptor agonist activity; assay type: cell-based; settings: cells expressing recombinant human GABABR1a2
Description: The following procedure was used to determine the GABAB receptor agonist activity of a compound as reflected by activation of Ca^2+ signaling. HEK TREx cells expressing GABABR1a2 under tetracycline induction control, and Gqi chimeric protein (expressed constitutively), allowing GABABR coupling through the Ca^2+ signaling pathway were used in the experiments.
Cells were seeded in media containing tetracycline overnight at 100,000 cells/well, in black, clear-bottom, 96-well plates. The following morning, cells were washed twice with 100 μL HBSS buffer per well. Fluorescent Ca^2+ indicator dye was prepared using the materials and procedure described in the F362056 Fluo-4 NW Calcium Assay Kit (Invitrogen, Carlsbad, Calif.). Ten (10) mL of kit buffer and 100 μl of kit Probenecid were added to individual kit dye vials, and rolled back and forth several times to dissolve the dye. Cells were then loaded into the dye solution at 50 μL per well. The cells and dye were incubated for 30 min at 37° C., and then incubated for an additional 30 min at room temperature in the dark. Test compounds are dissolved in HBSS buffer at twice final concentration. Duplicate wells were used for each unique condition. Solution containing the test compound was added to the wells using a FLEXStation II (Molecular Devices, Sunnyvale, Calif.). Using the instrument in kinetic mode in which each well was read every 2 sec over a total collection time of 50 sec fluorescence was measured using an excitation wavelength 494 nm and a detection wavelength of 516 nm. A normalized fluorescence value for each well was calculated using the following procedure. The difference in fluorescence at 35 sec (usually representing maximal response) and at 15 sec (a time point prior to addition of test compounds) was calculated, divided by the fluorescence at 15 sec, and the result multiplied by 100. The final value represented the percent increase in fluorescence relative to the fluorescence at 15 sec. Data was analyzed using standard procedures.

T1 sequence (Q9UBS5 15-961 limits assumed): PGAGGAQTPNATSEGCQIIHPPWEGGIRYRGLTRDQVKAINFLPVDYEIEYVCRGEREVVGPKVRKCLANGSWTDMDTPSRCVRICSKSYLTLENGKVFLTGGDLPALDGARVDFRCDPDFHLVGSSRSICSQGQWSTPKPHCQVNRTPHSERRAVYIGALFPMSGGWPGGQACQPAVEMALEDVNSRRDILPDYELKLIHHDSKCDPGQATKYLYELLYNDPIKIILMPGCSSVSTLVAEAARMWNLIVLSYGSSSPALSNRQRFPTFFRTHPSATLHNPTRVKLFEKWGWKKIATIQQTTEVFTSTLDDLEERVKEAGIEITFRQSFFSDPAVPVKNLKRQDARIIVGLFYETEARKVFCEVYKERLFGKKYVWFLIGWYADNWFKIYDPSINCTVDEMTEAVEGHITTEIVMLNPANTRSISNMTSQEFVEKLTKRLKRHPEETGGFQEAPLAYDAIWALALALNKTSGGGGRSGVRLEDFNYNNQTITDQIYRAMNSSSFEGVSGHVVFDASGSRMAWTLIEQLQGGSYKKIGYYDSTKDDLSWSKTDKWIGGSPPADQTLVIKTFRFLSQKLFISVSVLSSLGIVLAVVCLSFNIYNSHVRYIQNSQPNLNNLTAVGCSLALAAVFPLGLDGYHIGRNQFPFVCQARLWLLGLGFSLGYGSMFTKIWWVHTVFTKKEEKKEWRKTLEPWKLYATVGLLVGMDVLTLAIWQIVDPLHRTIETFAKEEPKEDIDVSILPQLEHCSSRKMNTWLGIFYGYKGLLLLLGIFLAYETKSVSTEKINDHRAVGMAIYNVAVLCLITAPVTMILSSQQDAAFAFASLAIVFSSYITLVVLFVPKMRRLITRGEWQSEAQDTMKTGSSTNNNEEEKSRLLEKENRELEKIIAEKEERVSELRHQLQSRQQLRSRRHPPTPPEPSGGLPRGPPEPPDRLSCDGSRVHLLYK
T1 sequence (O75899 42-941 partner): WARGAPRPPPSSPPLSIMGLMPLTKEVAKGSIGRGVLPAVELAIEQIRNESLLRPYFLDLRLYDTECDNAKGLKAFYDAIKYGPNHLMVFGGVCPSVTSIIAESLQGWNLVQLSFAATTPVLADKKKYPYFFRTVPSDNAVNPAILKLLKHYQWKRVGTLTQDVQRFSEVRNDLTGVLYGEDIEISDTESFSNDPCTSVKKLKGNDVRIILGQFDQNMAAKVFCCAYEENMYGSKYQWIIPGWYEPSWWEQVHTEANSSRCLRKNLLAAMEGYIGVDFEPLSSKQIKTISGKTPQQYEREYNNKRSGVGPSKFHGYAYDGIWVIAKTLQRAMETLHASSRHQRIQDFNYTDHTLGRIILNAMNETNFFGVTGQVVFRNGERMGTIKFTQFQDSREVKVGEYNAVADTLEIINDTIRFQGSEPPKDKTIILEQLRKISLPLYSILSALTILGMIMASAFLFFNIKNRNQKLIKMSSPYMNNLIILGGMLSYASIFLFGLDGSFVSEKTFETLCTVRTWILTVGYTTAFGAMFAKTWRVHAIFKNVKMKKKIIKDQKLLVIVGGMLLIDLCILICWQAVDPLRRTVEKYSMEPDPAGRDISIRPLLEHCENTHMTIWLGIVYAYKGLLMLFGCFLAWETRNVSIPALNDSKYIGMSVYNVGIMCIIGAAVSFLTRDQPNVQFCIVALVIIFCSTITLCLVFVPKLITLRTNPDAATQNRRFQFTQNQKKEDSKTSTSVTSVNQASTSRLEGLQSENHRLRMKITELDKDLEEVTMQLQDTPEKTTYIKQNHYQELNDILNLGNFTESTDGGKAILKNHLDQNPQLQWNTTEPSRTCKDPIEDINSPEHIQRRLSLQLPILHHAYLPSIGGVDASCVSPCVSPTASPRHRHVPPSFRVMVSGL
T2 sequence (Q9Z0U4 20-960): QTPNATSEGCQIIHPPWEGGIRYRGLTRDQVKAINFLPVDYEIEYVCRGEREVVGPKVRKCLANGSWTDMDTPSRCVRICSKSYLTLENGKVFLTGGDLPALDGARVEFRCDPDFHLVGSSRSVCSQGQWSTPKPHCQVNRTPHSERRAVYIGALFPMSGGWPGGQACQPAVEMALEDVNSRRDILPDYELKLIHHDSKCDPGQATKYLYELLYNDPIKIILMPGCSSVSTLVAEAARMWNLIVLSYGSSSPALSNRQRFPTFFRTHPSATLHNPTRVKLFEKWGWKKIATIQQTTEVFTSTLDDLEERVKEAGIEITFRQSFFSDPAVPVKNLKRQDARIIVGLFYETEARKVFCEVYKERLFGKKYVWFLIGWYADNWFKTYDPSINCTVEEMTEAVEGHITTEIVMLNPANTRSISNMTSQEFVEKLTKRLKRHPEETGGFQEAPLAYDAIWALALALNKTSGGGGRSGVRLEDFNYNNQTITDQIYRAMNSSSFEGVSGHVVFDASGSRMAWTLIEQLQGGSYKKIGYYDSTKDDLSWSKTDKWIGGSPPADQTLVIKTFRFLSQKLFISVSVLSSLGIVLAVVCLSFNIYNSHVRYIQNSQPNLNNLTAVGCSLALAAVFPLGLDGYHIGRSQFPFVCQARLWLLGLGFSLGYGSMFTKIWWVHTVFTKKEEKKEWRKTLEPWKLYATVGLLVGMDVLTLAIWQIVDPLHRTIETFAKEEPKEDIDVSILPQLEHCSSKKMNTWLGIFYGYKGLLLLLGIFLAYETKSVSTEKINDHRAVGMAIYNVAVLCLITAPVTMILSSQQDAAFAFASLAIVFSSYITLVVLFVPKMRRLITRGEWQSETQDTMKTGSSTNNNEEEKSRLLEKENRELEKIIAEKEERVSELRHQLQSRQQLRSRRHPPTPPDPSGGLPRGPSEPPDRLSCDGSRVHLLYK
T2 sequence (O88871 41-940 partner): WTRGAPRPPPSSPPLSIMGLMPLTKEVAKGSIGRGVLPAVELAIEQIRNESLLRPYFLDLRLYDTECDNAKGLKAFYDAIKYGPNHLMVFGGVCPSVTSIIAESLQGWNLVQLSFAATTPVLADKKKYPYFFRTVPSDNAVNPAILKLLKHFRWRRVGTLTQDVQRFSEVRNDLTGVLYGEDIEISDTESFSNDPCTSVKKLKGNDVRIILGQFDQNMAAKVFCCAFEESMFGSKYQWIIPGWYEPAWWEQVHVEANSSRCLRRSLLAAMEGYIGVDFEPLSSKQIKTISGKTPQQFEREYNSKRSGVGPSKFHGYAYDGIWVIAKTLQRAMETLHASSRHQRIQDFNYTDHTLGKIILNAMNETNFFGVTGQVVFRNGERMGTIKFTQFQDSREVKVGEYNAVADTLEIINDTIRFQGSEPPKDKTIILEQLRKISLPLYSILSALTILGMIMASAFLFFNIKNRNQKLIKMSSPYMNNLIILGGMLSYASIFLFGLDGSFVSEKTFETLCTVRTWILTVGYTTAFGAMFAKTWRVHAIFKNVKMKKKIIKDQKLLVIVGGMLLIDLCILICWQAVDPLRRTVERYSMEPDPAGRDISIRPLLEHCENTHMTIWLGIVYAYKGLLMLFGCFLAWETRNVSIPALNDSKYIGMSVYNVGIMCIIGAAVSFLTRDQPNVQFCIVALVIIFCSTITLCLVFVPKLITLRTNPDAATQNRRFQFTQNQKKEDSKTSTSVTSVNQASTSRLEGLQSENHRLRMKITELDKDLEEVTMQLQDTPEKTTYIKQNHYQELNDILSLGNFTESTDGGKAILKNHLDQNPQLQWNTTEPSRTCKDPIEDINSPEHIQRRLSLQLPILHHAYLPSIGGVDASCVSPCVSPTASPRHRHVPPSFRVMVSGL
Chain of GABAB receptor (Homo sapiens, UniProt Q9UBS5) (Q9UBS5 20-961): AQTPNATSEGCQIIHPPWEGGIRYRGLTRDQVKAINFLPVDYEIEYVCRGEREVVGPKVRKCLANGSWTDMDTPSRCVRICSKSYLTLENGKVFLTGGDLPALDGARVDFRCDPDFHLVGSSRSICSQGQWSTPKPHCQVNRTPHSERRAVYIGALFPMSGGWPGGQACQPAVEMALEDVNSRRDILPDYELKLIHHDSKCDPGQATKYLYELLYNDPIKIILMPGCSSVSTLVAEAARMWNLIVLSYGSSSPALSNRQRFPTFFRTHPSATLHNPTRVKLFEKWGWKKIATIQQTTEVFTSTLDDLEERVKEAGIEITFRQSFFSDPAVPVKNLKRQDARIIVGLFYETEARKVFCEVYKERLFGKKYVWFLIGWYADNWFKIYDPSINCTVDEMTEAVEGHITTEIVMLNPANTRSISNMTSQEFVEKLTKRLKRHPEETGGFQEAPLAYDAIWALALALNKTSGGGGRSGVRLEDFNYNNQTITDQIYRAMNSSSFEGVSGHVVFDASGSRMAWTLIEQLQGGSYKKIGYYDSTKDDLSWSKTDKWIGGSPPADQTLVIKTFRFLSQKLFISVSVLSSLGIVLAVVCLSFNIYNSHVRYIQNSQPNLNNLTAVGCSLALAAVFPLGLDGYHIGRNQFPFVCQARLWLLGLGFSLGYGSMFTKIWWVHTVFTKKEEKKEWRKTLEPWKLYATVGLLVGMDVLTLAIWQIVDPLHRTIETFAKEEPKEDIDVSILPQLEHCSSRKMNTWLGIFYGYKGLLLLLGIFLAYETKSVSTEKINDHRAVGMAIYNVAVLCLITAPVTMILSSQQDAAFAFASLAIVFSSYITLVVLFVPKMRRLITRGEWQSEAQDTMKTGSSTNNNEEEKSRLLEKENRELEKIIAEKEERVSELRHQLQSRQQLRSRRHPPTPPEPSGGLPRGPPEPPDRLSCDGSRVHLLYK
Chain of GABAB receptor (Homo sapiens, UniProt Q9UBS5) (O75899 42-941 partner): as the sequence (O75899 42-941 partner) above

Q: With `Cl.NC(=O)CC[C@H](N)C(=O)NC[C@H](CC(=O)O)c1ccc(Cl)c(-c2ccc(C(=O)O)s2)c1` [Example 80] as the molecule, how does the “oral bioavailability (F %)” value [1] read?
A: The value was “greater than 10%”.

Q: What does the source list for `NCC(CC(=O)O)c1ccc(Cl)cc1` (centres unmarked) [baclofen]?
A: hypothermia ([2]; GABAB(1)+/- and GABAB(1)+/+ but not GABAB(1)-/- mice): marked hypothermia; time after administration at which hypothermia reaches its minimum [2]: 60 to 80 min; number of emetic episodes [3]: about 13

Q: For `C[C@H](N)C(=O)NC[C@H](CC(=O)O)c1ccc(Cl)c(OCc2ccncc2)c1.Cl` [Example 73, (3R)-4-((2S)-2-Aminopropanoylamino)-3-[4-chloro-3-(4-pyridylmethoxy)phenyl]butanoic acid hydrochloride], which “oral bioavailability (F %)” value [1] is on record?
A: Its value is “greater than 10%”.

Q: With `Cl.N#Cc1ccc(Cl)c(-c2cc([C@H](CN)CC(=O)O)ccc2Cl)c1` [(3R)-4-amino-3-[4-chloro-3-(6-chloro-3-cyanophenyl)phenyl]butanoic acid hydrochloride] as the molecule, how does the “GABAB receptor agonist or partial agonist activity” value (GABAB receptor [4]) read?
A: The value was “agonist or partial agonist activity”.

Q: What about the EC50 [5] of the same molecule?
A: The EC50 was under 100 nM.

Q: What about the IC50 (GABAB receptor [6]) of the same molecule?
A: The IC50 was under 25000 nM.

Q: And the EC50 [7]?
A: Its EC50 is under 700 nM.

Q: For `Cl.NC[C@H](CC(=O)O)c1ccc(Cl)c(OCc2cccnc2)c1` [(3R)-4-amino-3-[4-chloro-3-(3-pyridylmethoxy)phenyl]butanoic acid hydrochloride], which “GABAB receptor agonist or partial agonist activity” value (GABAB receptor [4]) is on record?
A: The value was “agonist or partial agonist activity”.

Q: What about the EC50 [5] of the same molecule?
A: The EC50 was under 100 nM.

Q: And the IC50 (GABAB receptor [6])?
A: The IC50 was under 25000 nM.

Q: What about the EC50 [7] of the same molecule?
A: Its EC50 is under 700 nM.

Q: With `Cl.NC[C@H](CC(=O)O)c1ccc(Cl)c(-c2cccc([N+](=O)[O-])c2)c1` [Example 37, (3R)-4-Amino-3-[4-chloro-3-(3-nitrophenyl)phenyl]butanoic acid hydrochloride] as the molecule, how does the “GABAB receptor agonist or partial agonist activity” value (GABAB receptor [4]) read?
A: Its value is “agonist or partial agonist activity”.

Q: And the EC50 [5]?
A: Its EC50 is under 100 nM.

Q: What about the IC50 (GABAB receptor [6]) of the same molecule?
A: Its IC50 is under 25000 nM.

Q: What about the EC50 [7] of the same molecule?
A: Its EC50 is under 700 nM.
